Laboratory results: ChEMBL document CHEMBL1128795, “N-(Quinuclidin-3-yl)-2-(1-methyl-1H-indol-3-yl)-2-oxo-acetamide: a high affinity 5-HT3 receptor partial agonist” (Bioorg Med Chem Lett, 1995)

Biological target: T1, Muscarinic acetylcholine receptor M4 (Homo sapiens, UniProt P08173)
T1 sequence (P08173 whole entry): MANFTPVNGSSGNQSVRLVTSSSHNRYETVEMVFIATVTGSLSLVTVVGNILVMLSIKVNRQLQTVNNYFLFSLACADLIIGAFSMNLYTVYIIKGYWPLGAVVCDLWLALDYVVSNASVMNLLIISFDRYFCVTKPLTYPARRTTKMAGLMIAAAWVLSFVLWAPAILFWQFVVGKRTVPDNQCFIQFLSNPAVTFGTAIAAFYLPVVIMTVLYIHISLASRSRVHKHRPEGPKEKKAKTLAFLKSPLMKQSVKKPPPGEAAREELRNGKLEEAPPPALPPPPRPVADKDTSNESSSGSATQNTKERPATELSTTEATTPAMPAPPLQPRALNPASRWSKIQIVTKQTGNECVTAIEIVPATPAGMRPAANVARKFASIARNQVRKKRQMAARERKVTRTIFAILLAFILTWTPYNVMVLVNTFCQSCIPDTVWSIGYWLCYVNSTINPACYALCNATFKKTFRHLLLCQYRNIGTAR
Test: Binding affinity against Muscarinic acetylcholine receptor M4

`Cn1cc(C(=O)C(=O)N[C@H]2CN3CCC2CC3)c2ccccc21` gave a Ki of 25.1 µM.
